These are literature values, as cited in US20050158747A1, “CFTR modifier genes and expressed polypeptides useful in treating cystic fibrosis and methods and products for detecting and/or identifying same” (priority 2003, published 2005).

Data set [1] relates to purinergic receptors in the airway epithelium. The conditions noted are these: in vitro studies.
A further data set relates to sodium (Na^+) channels. The following applies: aerosolized; initial results.

In the case of `O=c1ccn([C@@H]2O[C@H](COP(=O)(O)OP(=O)(O)OP(=O)(O)O)[C@@H](O)[C@H]2O)c(=O)[nH]1` [UTP], in data set [1], the “chloride (Cl^−) secretion” value is given as “can stimulate chloride (Cl^−) secretion”.

On to `N=C(N)NC(=O)c1nc(Cl)c(N)nc1N` [amiloride], for which, in the data set on sodium (Na^+) channels, the “rate of disease progression, as measured by lung function tests” value is “slight change in the rate of disease progression” and the safety in trials entry was “safe”.

Regarding `Nc1ncnc2c1ncn2[C@@H]1O[C@H](COP(=O)(O)OP(=O)(O)OP(=O)(O)O)[C@@H](O)[C@H]1O` [ATP], the “chloride (Cl^−) secretion” value in data set [1] is “can stimulate chloride (Cl^−) secretion”.
